Laboratory results published in US10168342B2, “Lipid probes and uses thereof” (THE SCRIPPS RESEARCH INSTITUTE, priority 2015, dated 2019).
Where two headings read alike, the source gives them in different places.

Legend:
[1] = target: AEA-DA lipid probe targets in Neuro2a cells (Mus musculus, UniProt O89079)
[2] = target: T1, AEA-DA lipid probe targets in Neuro2a cells (Mus musculus, UniProt Q8R2Y8)
T1 sequence (Q8R2Y8 1-181): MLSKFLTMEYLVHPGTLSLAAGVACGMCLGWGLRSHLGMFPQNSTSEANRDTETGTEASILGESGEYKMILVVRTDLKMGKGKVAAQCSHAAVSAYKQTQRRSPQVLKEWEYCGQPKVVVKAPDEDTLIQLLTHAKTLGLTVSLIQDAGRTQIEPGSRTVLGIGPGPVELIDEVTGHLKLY

[3] = target: AEA-DA lipid probe targets in Neuro2a cells (Mus musculus, UniProt Q91V04)
Chain of AEA-DA lipid probe targets in Neuro2a cells (Mus musculus, UniProt Q91V04) (Q91V04 whole entry): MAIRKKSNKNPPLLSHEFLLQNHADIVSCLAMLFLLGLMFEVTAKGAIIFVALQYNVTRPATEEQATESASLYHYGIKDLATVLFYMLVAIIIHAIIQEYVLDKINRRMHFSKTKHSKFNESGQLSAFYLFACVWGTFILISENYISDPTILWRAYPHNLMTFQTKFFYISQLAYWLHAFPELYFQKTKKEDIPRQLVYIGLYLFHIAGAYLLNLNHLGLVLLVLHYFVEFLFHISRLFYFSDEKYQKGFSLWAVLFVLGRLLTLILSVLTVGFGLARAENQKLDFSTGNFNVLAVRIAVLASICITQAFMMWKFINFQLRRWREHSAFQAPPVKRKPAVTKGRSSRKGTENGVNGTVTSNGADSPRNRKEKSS

[4] = target: T2, AEA-DA lipid probe targets in Neuro2a cells (Mus musculus, UniProt Q07646)
T2 sequence (Q07646 1-335): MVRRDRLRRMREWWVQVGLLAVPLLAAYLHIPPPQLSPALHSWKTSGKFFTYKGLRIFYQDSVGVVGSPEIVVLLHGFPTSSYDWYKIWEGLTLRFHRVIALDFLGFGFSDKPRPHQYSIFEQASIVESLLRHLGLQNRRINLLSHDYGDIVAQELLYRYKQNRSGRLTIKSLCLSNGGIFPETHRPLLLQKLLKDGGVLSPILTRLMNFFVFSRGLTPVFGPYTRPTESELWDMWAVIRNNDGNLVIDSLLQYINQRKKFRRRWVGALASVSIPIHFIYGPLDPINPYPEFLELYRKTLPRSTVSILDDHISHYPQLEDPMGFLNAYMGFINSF

[5] = target: T3, AEA-DA lipid probe targets in Neuro2a cells (Mus musculus, UniProt Q0VGU4)
T3 sequence (Q0VGU4 24-617): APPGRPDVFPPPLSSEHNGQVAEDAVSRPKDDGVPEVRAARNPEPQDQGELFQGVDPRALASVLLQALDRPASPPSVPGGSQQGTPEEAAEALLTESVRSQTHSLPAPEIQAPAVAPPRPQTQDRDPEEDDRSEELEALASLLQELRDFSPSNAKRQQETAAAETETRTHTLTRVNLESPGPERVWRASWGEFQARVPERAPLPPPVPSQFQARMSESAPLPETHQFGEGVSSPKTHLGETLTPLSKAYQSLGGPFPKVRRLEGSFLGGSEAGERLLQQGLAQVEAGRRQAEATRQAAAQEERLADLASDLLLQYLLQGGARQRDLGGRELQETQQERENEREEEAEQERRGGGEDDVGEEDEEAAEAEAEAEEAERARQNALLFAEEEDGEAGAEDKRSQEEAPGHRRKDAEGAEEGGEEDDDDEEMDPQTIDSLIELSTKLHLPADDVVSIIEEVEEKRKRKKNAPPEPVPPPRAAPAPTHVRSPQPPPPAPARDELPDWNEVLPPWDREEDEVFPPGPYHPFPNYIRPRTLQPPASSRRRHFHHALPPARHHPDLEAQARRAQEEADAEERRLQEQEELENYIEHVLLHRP

[6] = target: T4, AEA-DA lipid probe targets in Neuro2a cells (Mus musculus, UniProt Q8K0C4)
T4 sequence (Q8K0C4 1-503): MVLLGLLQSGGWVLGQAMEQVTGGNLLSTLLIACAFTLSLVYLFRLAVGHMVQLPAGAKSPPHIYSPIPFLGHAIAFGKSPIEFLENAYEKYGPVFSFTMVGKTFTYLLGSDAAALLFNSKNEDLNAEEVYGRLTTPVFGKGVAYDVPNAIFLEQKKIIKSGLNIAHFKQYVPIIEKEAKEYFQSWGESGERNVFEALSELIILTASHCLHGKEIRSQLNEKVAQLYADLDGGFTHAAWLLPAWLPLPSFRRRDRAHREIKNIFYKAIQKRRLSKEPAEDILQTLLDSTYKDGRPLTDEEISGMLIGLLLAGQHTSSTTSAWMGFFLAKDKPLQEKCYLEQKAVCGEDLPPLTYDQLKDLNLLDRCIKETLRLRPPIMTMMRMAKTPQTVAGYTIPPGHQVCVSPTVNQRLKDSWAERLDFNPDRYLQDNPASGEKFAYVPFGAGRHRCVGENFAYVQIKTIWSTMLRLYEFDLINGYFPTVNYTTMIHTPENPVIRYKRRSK

[7] = target: T5, AEA-DA lipid probe targets in Neuro2a cells (Mus musculus, UniProt Q8BKE6)
T5 sequence (Q8BKE6 1-462): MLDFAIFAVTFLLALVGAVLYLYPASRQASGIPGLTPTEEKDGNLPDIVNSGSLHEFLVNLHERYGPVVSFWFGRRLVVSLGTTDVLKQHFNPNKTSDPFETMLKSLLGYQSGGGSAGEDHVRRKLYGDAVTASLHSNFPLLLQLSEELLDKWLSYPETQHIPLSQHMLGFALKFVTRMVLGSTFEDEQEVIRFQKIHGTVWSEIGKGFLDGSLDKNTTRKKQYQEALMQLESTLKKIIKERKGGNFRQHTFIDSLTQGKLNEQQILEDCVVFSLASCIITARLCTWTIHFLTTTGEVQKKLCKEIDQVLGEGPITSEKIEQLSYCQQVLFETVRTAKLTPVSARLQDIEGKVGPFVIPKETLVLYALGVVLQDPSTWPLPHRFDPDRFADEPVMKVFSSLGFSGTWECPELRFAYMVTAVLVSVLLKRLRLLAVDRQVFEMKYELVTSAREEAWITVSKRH

[8] = target: T6, AEA-DA lipid probe targets in Neuro2a cells (Mus musculus, UniProt Q922Q8)
T6 sequence (Q922Q8 1-307): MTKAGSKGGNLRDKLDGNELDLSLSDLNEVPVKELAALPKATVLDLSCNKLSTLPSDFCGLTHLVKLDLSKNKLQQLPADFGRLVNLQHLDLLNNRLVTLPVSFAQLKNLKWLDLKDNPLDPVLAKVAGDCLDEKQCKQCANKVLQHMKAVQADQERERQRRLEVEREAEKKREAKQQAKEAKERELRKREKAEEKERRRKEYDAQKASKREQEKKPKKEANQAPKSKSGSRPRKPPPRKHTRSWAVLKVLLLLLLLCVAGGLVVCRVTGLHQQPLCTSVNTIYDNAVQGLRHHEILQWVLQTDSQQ

Chain of AEA-DA lipid probe targets in Neuro2a cells (Mus musculus, UniProt O89079) (O89079 whole entry): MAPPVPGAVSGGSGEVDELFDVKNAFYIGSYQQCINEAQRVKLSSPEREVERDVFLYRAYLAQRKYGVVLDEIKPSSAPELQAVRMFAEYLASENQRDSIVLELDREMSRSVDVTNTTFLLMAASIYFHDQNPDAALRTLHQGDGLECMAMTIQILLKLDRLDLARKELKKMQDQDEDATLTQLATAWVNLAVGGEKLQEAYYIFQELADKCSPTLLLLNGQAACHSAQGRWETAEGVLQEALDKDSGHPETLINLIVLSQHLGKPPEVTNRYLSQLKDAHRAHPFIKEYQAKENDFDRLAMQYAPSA

C=CCN(C)CCCCCCOc1ccc(C(=O)c2ccc(Br)cc2)c(F)c1 [Ro 48-8071, reference compound]
SILAC ratio Cope ([1]; competitor 25 μM): 1.1
SILAC ratio Ptrh2 ([2]; competitor 25 μM): 0.9
SILAC ratio, Tram1 ([3]; competitor 25 μM): 1.8
SILAC ratio Mest ([4]; competitor 25 μM): 1.2
SILAC ratio, Vgf ([5]; competitor 25 μM): 0.9
SILAC ratio Cyp51a1 ([6]; competitor 25 μM): 1.3
SILAC ratio, Cyp20a1 ([7]; competitor 25 μM): 1.1
SILAC ratio Lrrc59 ([8]; competitor 25 μM): 1.2

CN1CCN(C(=O)c2[nH]c3ccc([N+](=O)[O-])cc3c2-c2ccccc2)CC1 [MJN228, (4-Methylpiperazin-1-yl)(5-nitro-3-phenyl-1H-indol-2-yl)methanone]
SILAC ratio Cope ([1]; competitor 25 μM): 1.2
SILAC ratio Ptrh2 ([2]; competitor 10 μM): 1.1
SILAC ratio Ptrh2 ([2]; competitor 25 μM): 1.0
SILAC ratio Ptrh2 ([2]; competitor 50 μM): 1.2
SILAC ratio Ptrh2 ([2]; competitor 100 μM): 1.1
SILAC ratio, Tram1 ([3]; competitor 10 μM): 1.3
SILAC ratio, Tram1 ([3]; competitor 25 μM): 1.8
SILAC ratio, Tram1 ([3]; competitor 50 μM): 1.9
SILAC ratio, Tram1 ([3]; competitor 100 μM): 5.4
SILAC ratio Mest ([4]; competitor 10 μM): 1.2
SILAC ratio Mest ([4]; competitor 25 μM): 1.4
SILAC ratio Mest ([4]; competitor 50 μM): 1.3
SILAC ratio Mest ([4]; competitor 100 μM): 1.6
SILAC ratio, Vgf ([5]; competitor 10 μM): 1.3
SILAC ratio, Vgf ([5]; competitor 25 μM): 1.3
SILAC ratio, Vgf ([5]; competitor 50 μM): 1.1
SILAC ratio, Vgf ([5]; competitor 100 μM): 1.0
SILAC ratio Cyp51a1 ([6]; competitor 10 μM): 1.5
SILAC ratio Cyp51a1 ([6]; competitor 25 μM): 2.2
SILAC ratio Cyp51a1 ([6]; competitor 50 μM): 2.3
SILAC ratio Cyp51a1 ([6]; competitor 100 μM): 3.1
SILAC ratio, Cyp20a1 ([7]; competitor 10 μM): 1.2
SILAC ratio, Cyp20a1 ([7]; competitor 25 μM): 1.3
SILAC ratio, Cyp20a1 ([7]; competitor 50 μM): 1.2
SILAC ratio, Cyp20a1 ([7]; competitor 100 μM): 1.6
SILAC ratio Lrrc59 ([8]; competitor 10 μM): 1.3
SILAC ratio Lrrc59 ([8]; competitor 25 μM): 1.5
SILAC ratio Lrrc59 ([8]; competitor 50 μM): 1.5
SILAC ratio Lrrc59 ([8]; competitor 100 μM): 2.0

CCCCC/C=C\C/C=C\C/C=C\C/C=C\CCCC(=O)NCCO [AEA, anandamide, reference compound]
SILAC ratio Cope ([1]; competitor 200 μM): 0.9
SILAC ratio Ptrh2 ([2]; competitor 200 μM): 1.5
SILAC ratio, Tram1 ([3]; competitor 200 μM): 2.9
SILAC ratio Mest ([4]; competitor 200 μM): 1.5
SILAC ratio, Vgf ([5]; competitor 200 μM): 1.0
SILAC ratio Cyp51a1 ([6]; competitor 200 μM): 1.8
SILAC ratio Lrrc59 ([8]; competitor 200 μM): 1.6

CN1CCN(C(=O)c2c(-c3ccccc3)c3cc([N+](=O)[O-])ccc3n2C)CC1 [KML110, (1-Methyl-5-nitro-3-phenyl-1H-indol-2-yl)(4-methylpiperazin-1-yl)methanone]
SILAC ratio Ptrh2 ([2]; competitor 25 μM): 1.0
SILAC ratio, Tram1 ([3]; competitor 25 μM): 1.7
SILAC ratio Mest ([4]; competitor 25 μM): 1.3
SILAC ratio, Vgf ([5]; competitor 25 μM): 1.4
SILAC ratio Cyp51a1 ([6]; competitor 25 μM): 1.2
SILAC ratio, Cyp20a1 ([7]; competitor 25 μM): 1.4
SILAC ratio Lrrc59 ([8]; competitor 25 μM): 1.3

O=C(/C=C/c1cccnc1)NCCCCC1CCN(C(=O)c2ccccc2)CC1 [FK-866, reference compound]
SILAC ratio Cope ([1]; competitor 25 μM): 1.5
SILAC ratio Ptrh2 ([2]; competitor 25 μM): 1.0
SILAC ratio, Tram1 ([3]; competitor 25 μM): 1.2
SILAC ratio Mest ([4]; competitor 25 μM): 1.2
SILAC ratio, Vgf ([5]; competitor 25 μM): 1.1
SILAC ratio Cyp51a1 ([6]; competitor 25 μM): 1.5
SILAC ratio, Cyp20a1 ([7]; competitor 25 μM): 1.1
SILAC ratio Lrrc59 ([8]; competitor 25 μM): 1.2
